{"source": "patent US9434692B2", "about": "“Pyrazole derivatives as modulators of the 5-HT2A serotonin receptor useful for the treatment of disorders related thereto” (Arena Pharmaceuticals, Inc., priority 2006, dated 2016)", "key": {"[1]": {"tested_on": "healthy adults", "assay": "Phase 1 trials, waking EEG", "assay_type": "in vivo, human"}, "[2]": {"tested_on": "normal volunteers", "assay": "Afternoon nap model of insomnia in normal volunteers", "assay_type": "in vivo, human", "description": "APD125, a potent and selective 5-HT2A serotonin receptor inverse agonist is a member of the genus disclosed in the European Patent EP1558582. […] Sleep onset latency was not decreased by APD125. In the afternoon nap model, APD125 decreased microarousals, the number of sleep stage shifts, and number of awakenings after sleep onset."}, "[3]": {"tested_on": "diabetic rats", "conditions": "cited from earlier work; for reduction in saphenous sensory conduction velocity: 14.9% reduction in diabetic rats; for correction of sciatic motor conduction deficit: 19.8% deficit in diabetic rats, range over all three drugs; for reduction in sciatic endoneurial blood flow: 44.7% reduction in diabetic rats"}, "[4]": {"tested_on": "DOI-induced hypolocomotion", "assay": "Attenuation of DOI-induced hypolocomotion in rats", "assay_type": "in vivo, Sprague-Dawley rats", "conditions": "compound 1-10 mg/kg p.o., DOI 1 mg/kg s.c.", "experimental": "In this example, compounds of the invention were tested for inverse agonist activity by determining whether these compounds could attenuate DOI-induced hypolocomotion in rats in a novel environment. DOI is a potent 5-HT2A/2C receptor agonist that crosses the blood-brain barrier. The standard protocol used is described briefly below.\nMale Sprague-Dawley rats weighing between 200-350 g were used for all tests. Rats were housed three to four per cage.\n(R)-DOI HCl (C11H16INO2.HCl) was obtained from Sigma-Aldrich, and was dissolved in 0.9% saline. Compounds of the invention were synthesized at Arena Pharmaceuticals Inc., San Diego, Calif., and were dissolved in 100% PEG400. DOI was injected s.c. in a volume of 1 mL/kg, while compounds of the invention were administered p.o. in a volume of 1 mL/kg.\nThe “Motor Monitor” (Hamilton-Kinder, Poway, Calif.) was used for all activity measurement. This apparatus recorded rears using infrared photobeams. […]\nIn determining the effects of compounds of the invention on DOI-induced hypoactivity, animals were first injected with vehicle or the compound of the invention (1-10 mg/kg) in their home cages. […] Ten minutes after DOI administration, animals were placed into the activity apparatus and rearing activity was measured for 10 min.\nResults (total rears over 10 minutes) were analyzed by t-test. […]"}, "[5]": {"biological_target": "human 5-HT2A serotonin receptor (Homo sapiens (Human), UniProt P28223)", "assay": "[125I]DOI radioligand binding assay", "conditions": "0.5 nM [125I]DOI, COS7 membranes, recombinant human 5-HT2A", "experimental": "Compounds of the invention were tested for their ability to bind to a 5-HT2A serotonin receptor clone membrane preparation using a radioligand binding assay. Briefly, COS cells were transiently transfected with a pCMV expression vector containing a human 5-HT2A receptor (for the sequence of the receptor see U.S. Pat. No. 6,541,209, SEQ ID NO:24).\nCOS7 cells transfected with recombinant human 5-HT2A serotonin receptors were cultured for 48 h post transfection, collected, washed with ice-cold phosphate buffered saline, pH 7.4 (PBS), and then centrifuged at 48,000 g for 20 min at 4° C. The cell pellet was then resuspended in wash buffer containing 20 mM HEPES pH 7.4 and 0.1 mM EDTA, homogenized on ice using a Brinkman polytron, and recentrifuged at 48,000 g for 20 min at 4° C. The resultant pellet was then resuspended in 20 mM HEPES, pH 7.4, homogenized on ice, and centrifuged (48,000 g for 20 min at 4° C.). Crude membrane pellets were stored at −80° C. until used for radioligand binding assays.\nRadioligand binding assays for human 5-HT2A serotonin receptor was conducted using the 5-HT2 agonist [^125I]DOI as radioligand. To define nonspecific binding, 10 μM DOI was used for all assays. For competitive binding studies, 0.5 nM [^125I]DOI was used and compounds were assayed over a range of 0.01 nM to 10 μM. Assays were conducted in a total volume of 200 μl in 96-well Perkin Elmer GF/C filter plates in assay buffer (50 mM Tris-HCl, pH 7.4, 0.5 mM EDTA, 5 mM MgCl2, and 10 μM pargyline). Assay incubations were performed for 60 min at room temperature and were terminated by rapid filtration under vacuum pressure of the reaction mixture over Whatman GF/C glass fiber filters presoaked in 0.5% PEI using a Brandell cell harvester. Filters were then washed several times with ice-cold wash buffer (50 mM Tris-HCl, pH 7.4). Plates were then dried at room temperature and counted in a Wallac MicroBeta scintillation counter."}, "[6]": {"tested_on": "DOCA-salt induced hypertension", "conditions": "rats; cited from earlier work"}, "[7]": {"tested_on": "glaucoma patients", "conditions": "cited from earlier work"}, "[8]": {"tested_on": "JC virus", "conditions": "cited from earlier work"}, "[9]": {"tested_on": "heatstroke", "conditions": "in vivo; cited from earlier work"}, "[10]": {"tested_on": "spontaneously hypertensive rats", "conditions": "cited from earlier work"}, "[11]": {"tested_on": "diabetic nephropathy", "conditions": "24 months of treatment; cited from earlier work"}, "[12]": {"tested_on": "pain in rats", "conditions": "cited from earlier work"}, "[13]": {"tested_on": "lower back pain, leg pain and numbness", "conditions": "humans, lumbar disc herniation; cited from earlier work"}}, "data": [{"compound": "COc1ccc(NC(=O)Nc2ccc(F)cc2F)cc1-c1c(Br)cnn1C", "note": "[APD125]", "values": [{"measurement": "dose of maximal effects on waking EEG", "setting": "[1]", "result": "40 to 80", "unit": "mg"}, {"measurement": "effects on waking EEG", "setting": "[1]", "result": "vigilance-lowering effects"}, {"measurement": "time of peak effects after dosing", "setting": "[1]; waking EEG", "result": 24, "unit": "h"}, {"measurement": "REM sleep", "setting": "[2]; human, in vivo", "result": "at the expense of REM sleep"}, {"measurement": "microarousals", "setting": "[2]; human, in vivo", "result": "decreased"}, {"measurement": "number of awakenings after sleep onset", "setting": "[2]; human, in vivo", "result": "decreased"}, {"measurement": "number of sleep stage shifts", "setting": "[2]; human, in vivo", "result": "decreased"}, {"measurement": "sleep onset latency", "setting": "[2]; human, in vivo", "result": "not decreased"}, {"measurement": "slow wave sleep and associated parameters", "setting": "[2]; primarily during the early part of sleep", "result": "increased slow wave sleep and associated parameters in a dose-dependent manner"}]}, {"compound": "O=CN1CCC(C(=O)NCCN2CCC(=C3c4ccccc4C=Cc4ccccc43)CC2)CC1", "note": "[AT-1015]", "values": [{"measurement": "reduction in saphenous sensory conduction velocity", "setting": "[3]", "result": "completely reversed"}, {"measurement": "correction of sciatic motor conduction deficit", "setting": "[3]", "result": "82.6-99.7%"}, {"measurement": "reduction in sciatic endoneurial blood flow", "setting": "[3]", "result": "completely reversed"}]}, {"compound": "CCn1cc(Cl)c(C(=O)N2CCN(CC(=O)c3ccc(F)cc3)CC2)n1", "note": "[Compound 7, 2-[4-(4-Chloro-1-ethyl-1H-pyrazole-3-carbonyl)-piperazin-1-yl]-1-(4-fluoro-phenyl)-ethanone]", "values": [{"measurement": "attenuation of DOI-induced hypolocomotion (total rears over 10 minutes)", "setting": "[4]", "result": "attenuated DOI-induced hypolocomotion"}]}, {"compound": "Cn1cc(Cl)c(C(=O)N2CCN(CCc3ccccc3F)CC2)n1", "note": "[Compound 24, (4-Chloro-1-methyl-1H-pyrazol-3-yl)-{4-[2-(2-fluoro-phenyl)-ethyl]-piperazin-1-yl}-methanone]", "values": [{"measurement": "IC50", "setting": "[5]", "result": 36, "unit": "nM"}]}, {"compound": "Cn1nc(C(=O)N2CCN(CC(=O)c3ccc(F)cc3)CC2)cc1C(F)(F)F", "note": "[Compound 35, 1-(4-Fluoro-phenyl)-2-[4-(1-methyl-5-trifluoromethyl-1H-pyrazole-3-carbonyl)-piperazin-1-yl]-ethanone]", "values": [{"measurement": "attenuation of DOI-induced hypolocomotion (total rears over 10 minutes)", "setting": "[4]", "result": "attenuated DOI-induced hypolocomotion"}]}, {"compound": "Cc1[nH]nc(C(=O)N2CCN(CC(=O)c3ccc(F)cc3)CC2)c1F", "note": "[Compound 42, 2-[4-(4-Fluoro-5-methyl-1H-pyrazole-3-carbonyl)-piperazin-1-yl]-1-(4-fluoro-phenyl)-ethanone]", "values": [{"measurement": "IC50", "setting": "[5]", "result": 11, "unit": "nM"}]}, {"compound": "Cc1[nH]nc(C(=O)N2CCN(CC(=O)c3ccc(F)cc3)CC2)c1Br", "note": "[Compound 52, 2-[4-(4-Bromo-5-methyl-1H-pyrazole-3-carbonyl)-piperazin-1-yl]-1-(4-fluoro-phenyl)-ethanone]", "values": [{"measurement": "IC50", "setting": "[5]", "result": 4.6, "unit": "nM"}]}, {"compound": "Cn1nc(C(=O)N2CCN(CC(=O)c3ccc(F)cc3)CC2)cc1-c1ccco1", "note": "[Compound 66, 1-(4-Fluoro-phenyl)-2-[4-(5-furan-2-yl-1-methyl-1H-pyrazole-3-carbonyl)-piperazin-1-yl]-ethanone]", "values": [{"measurement": "IC50", "setting": "[5]", "result": 4.8, "unit": "nM"}]}, {"compound": "CN1CCN2c3ccccc3Cc3ccccc3C2C1", "note": "(centres unmarked) [Mainserin]", "values": [{"measurement": "DOCA-salt induced hypertension", "setting": "[6]", "result": "prevent DOCA-salt induced hypertension"}]}, {"compound": "O=C(c1ccc(F)cc1)C1CCN(CCn2c(=O)[nH]c3ccccc3c2=O)CC1", "note": "[ketanserin]", "values": [{"measurement": "intra ocular pressure (IOP)", "setting": "[7]", "result": "significantly lower IOP"}, {"measurement": "JC virus infection of human glial cells", "setting": "[8]", "result": "inhibited JC virus infection of human glial cells"}, {"measurement": "protection during heatstroke", "setting": "[9]", "result": "protect against circulatory shocks, intracranial hypertension, and cerebral ischemia during heatstroke"}, {"measurement": "blood pressure", "setting": "[10]", "result": "stabilize blood pressure"}]}, {"compound": "Cc1nc2sccn2c(=O)c1CCN1CCC(=C(c2ccc(F)cc2)c2ccc(F)cc2)CC1", "note": "[ritanserin]", "values": [{"measurement": "reduction in saphenous sensory conduction velocity", "setting": "[3]", "result": "completely reversed"}, {"measurement": "correction of sciatic motor conduction deficit", "setting": "[3]", "result": "82.6-99.7%"}, {"measurement": "reduction in sciatic endoneurial blood flow", "setting": "[3]", "result": "completely reversed"}, {"measurement": "JC virus infection of human glial cells", "setting": "[8]", "result": "inhibited JC virus infection of human glial cells"}]}, {"compound": "COc1cccc(CCc2ccccc2OCC(CN(C)C)OC(=O)CCC(=O)O)c1", "note": "(centres unmarked) [sarpogrelate]", "values": [{"measurement": "reduction in saphenous sensory conduction velocity", "setting": "[3]", "result": "completely reversed"}, {"measurement": "correction of sciatic motor conduction deficit", "setting": "[3]", "result": "82.6-99.7%"}, {"measurement": "reduction in sciatic endoneurial blood flow", "setting": "[3]", "result": "completely reversed"}, {"measurement": "urinary albumin excretion level", "setting": "[11]", "result": "significantly reduced"}, {"measurement": "intra ocular pressure (IOP)", "setting": "[7]", "result": "significantly lower IOP"}, {"measurement": "analgesic effect on thermal induced pain", "setting": "[12]; intraperitoneal administration", "result": "significant analgesic effect"}, {"measurement": "analgesic effect on inflammatory pain", "setting": "[12]; intrathecal or intraperitoneal administration", "result": "significant analgesic effect"}, {"measurement": "treatment of lower back pain, leg pain and numbness associated with sciatica", "setting": "[13]", "result": "effective treatment"}]}]}
